Test results reported in PMC2477751 (International journal of experimental diabetes research, 2000).
“Also recorded” adds a separate entry of the source. Like-named read-outs stand apart in the source and are kept apart here.

Columns and labels:
[1] = system: serum growth hormone (GH); experiment: Serum rat growth hormone (RIA) after subcutaneous octreotide injection; type: in vivo
[2] = system: serum insulin-like growth factor I (IGF-I); experiment: Serum IGF-I (RIA after acid-methanol extraction) after subcutaneous octreotide injection; type: in vivo, rat
[3] = system: hypoxia-induced retinal neovascularization; experiment: Neonatal rat retinopathy (ROP) model, alternating hypoxia/hyperoxia, histologic scoring of eyes; type: in vivo
Experimental: We evaluated its effect on retinal neovascularization in vivo, using a neonatal rat retinopathy model. Methods: We used, on alternating days, hypoxia (10% O2) and hyperoxia (50% O2) during the first 14 days of neonatal rats, to induce retinal neovascularization. […] At day 18 the eyes were evaluated for the presence of epiretinal and vitreal hemorrhage, neovascularization and epiretinal proliferation.
Int. Jnl. Experimental Diab. Res., Vol. 1, pp. 39-47 Reprints available directly from the publisher Photocopying permitted by license only (C) 2000 OPA (Overseas Publishers Association) N.V. Published by license under the Harwood Academic Publishers imprint, part of The Gordon and Breach Publishing Group. Printed in Malaysia. […] We evaluated its effect on retinal neo- vascularization in vivo, using a neonatal rat retino- pathy model. Methods: We used, on alternating days, hypoxia (10%O2) and hyperoxia (50%02) during the first 14 days of neonatal rats, to induce retinal neovascu- larization. […] At day 18 the eyes were evaluated for the presence of epiretinal and vitreal hemorrhage, neovasculariza- tion and epiretinal proliferation. […] Keywords: Retinopathy of prematurity, angiogenesis, insulin- like growth factor, growth hormone, neovascularization INTRODUCTION Retinal neovascularization is a common feature of several eye diseases characterized by retinal hypoxia, such as proliferative diabetic retino- pathy (PDR) and retinopathy of prematurity (ROP). While the underlying pathology may be different in these conditions, the neovascular pro- cess itself leads to destruction of normal retina and eventually causes blindness. *Corresponding author. Department of Ophthalmology, Hadassah University Hospital, P. O. Box 12000, Jerusalem 91120, Israel. Tel.: +972-2-677 6927, Fax: +972-2-643 4434, e-maih edward@md2.huji.ac.il 39 40 E. AVERBUKH et al. Growth hormone (GH) and insulin-like growth factor I (IGF-I) have been implicated in the pathogenesis of PDR (Lundbaek et al., 1970; Dills et al., 1991). […] High vitre- ous levels of IGF-I and IGF binding proteins (IGFBPs) were found in patients with neovas- cular eye disease related to diabetes and to other ischemic retinal conditions (Meyer-Schwickerath et al., 1993). In addition, a recent study demon- strated the essential role of GH and IGF-I in the development of retinal neovascularization in the ROP model in mice (Smith et al., 1997). Decades ago, before the advent of lasers, elimination of GH production by pituitary ablation was an accepted therapy for PDR (Bradley, Rees and Fager, 1965). […] METHODS Animals Fifty-six neonatal Sabra rats (provided by the Harlan Laboratories, Jerusalem, Israel) were divided into experimental groups of eight to ten animals from mixed litters, not divided ac- cording to gender. At the age of one day the group with the lactating mother were placed in an incubator with a controlled oxygen con- centration. […] All the animals were maintained and treated in ac- cordance with the Association for Research in Vision and Ophthalmology statement on the use of animals in ophthalmic and vision re- search. Retinal neovascularization was induced by alternating oxygen concentrations as pre- viously described (Reynaud and Dorey, 1994; Penn, Tolman and Lowery, 1993). Briefly, the animals were exposed on alternating days to hypoxia (10% O2-24h) and hyperoxia (50% O2-24h) during their first 14 days, followed by four days in room air. Hypoxia was produced by mixing air with nitrogen, and hyperoxia by mixing air with oxygen. A minimal flow of two liters per minute was maintained. […] At day 18 the rats were anesthetized with ether and sacrificed. The eyes were enu- cleated and placed in formaldehyde. […] These areas are prone to ischemia when the oxygen level is lowered.

[4] = set-up: method as in Bauer et al., 1982; conditions: ref Bauer et al., 1982; cited from earlier work
From the text: Int. Jnl. Experimental Diab. Res., Vol. 1, pp. 39-47 Reprints available directly from the publisher Photocopying permitted by license only (C) 2000 OPA (Overseas Publishers Association) N.V. Published by license under the Harwood Academic Publishers imprint, part of The Gordon and Breach Publishing Group. Printed in Malaysia.

[5] = system: IGF-I mRNA, GH stimulated hepatocytes; conditions: ref Serri et al., 1992, cited from earlier work
From the text: (§1) Int. Jnl. Experimental Diab. […] Printed in Malaysia.

[6] = system: human retinal endothelial cell (HREC); conditions: HREC stimulated by IGF-I and bFGF, ref Grant et al., 1993b, cited from earlier work
From the text: as §1

[7] = Serum octreotide level (RIA) after subcutaneous injection in neonatal rats; conditions: Sabra, rat, sc
[8] = stated for both the octreotide-treated and the control groups

C[C@@H](O)[C@@H]1NC(=O)[C@H](CCCCN)NC(=O)[C@@H](Cc2c[nH]c3ccccc23)NC(=O)[C@H](Cc2ccccc2)NC(=O)[C@@H](NC(=O)[C@H](N)Cc2ccccc2)CSSC[C@@H](C(=O)N[C@H](CO)[C@@H](C)O)NC1=O [octreotide]
Serum GH level vs control group ([1]; 9 and 14 hours after injection): returned to baseline; also recorded: comparable | Decrease of serum GH level compared with saline injected animals ([1]; 2 hours after injection, p = 0.002): 40% | Serum IGF-I level vs control group ([2]; 2 hours after injection): unchanged; also recorded: similar | Elevation of serum IGF-I level vs control group ([2]; 9 hours after injection, p 0.06): 19% | Elevation of serum IGF-I level vs control group ([2]; 14 hours after injection, p = 0.02): 26% | Effect of injections on retinal pathology ([3]; 0.7 μg/g BW s.c. twice daily, Mann-Whitney Rank Sum Test vs saline): no statistically significant effect | Eyes in which NV was found ([3]; octreotide-treated eyes, day 18 (control 27%)): 35% | Eyes affected by any of epiretinal and vitreal hemorrhages [3, 8]: ~70% | Eyes affected by epiretinal or by vitreal hemorrhages, each one of them [3, 8]: approximately 45% | Eyes affected by PVR ([3]; stated for each group): less than 40% | Retinal neovascularization ([3]; twice-daily injections, neonatal rat ROP model): not inhibited | Plasma half-life [4]: 1.5 h | IGF-I mRNA abundance in cultured GH stimulated hepatocytes ([5]; high concentrations of octreotide (30 and 300 μg/l)): no effect | IGF-I mRNA levels in cultured GH stimulated hepatocytes ([5]; low octreotide concentrations (0.3 and 3 μg/l)): significantly reduced | Inhibition of [3H]thymidine incorporation ([6]; octreotide level 1.6 μg/l): 15% | Inhibition of [3H]thymidine incorporation ([6]; octreotide level 16 μg/l): 35% | Inhibition of [3H]thymidine incorporation ([6]; octreotide level 164 μg/l): 60% | half-life ([7]; 0.7 μg/g BW): 1.63 h | level at 9 h ([7]; 20 ug): 26.4 ng/mL | level at 14 h ([7]; 20 ug): 3.2 ng/mL
